The text below walks through data of patent publication US9493490B1, “Boron-containing small molecules” (Anacor Pharmaceuticals, Inc., priority 2013, dated 2016).

Where two headings read alike, the source gives them in different places.

For experiment [1], the system named is TNF-a secretion from LPS stimulated hPBMC. Description: Inhibition of TNF-a secretion from LPS stimulated hPBMC. The format is cell-based, human. Particulars: LPS for 24 hours. As for the experimental part:
Measurement of the inhibition of cytokine secretion from stimulated human peripheral blood mononuclear cells by drugs was performed as described in Dong C. et al., J Pharmacol Exp Ther. 2013 February; 344(2):436-46; and Akama T. et al., Bioorg Med Chem Lett. 2013 Mar. 15; 23(6):1680-3. Briefly PBMC were incubated with drug, and stimulators; LPS for 24 hours to release TNF-α, and IL-6; PHA for 24 hours, to release IL-2 and IFN-γ, and PHA for 48 hours, to release IL-5 and IL-13. The cell culture supernatants were collected for cytokine determinations using Cisbio HTRF cytokine determination kits. Compounds were prepared using an eight point 1:10 dilution series starting at 10 or 100 uM; the resulting dose-response curves were fit to the four parameter sigmoid equation.

In experiment [2] the target is T1, ROCK1 (Homo sapiens (Human), UniProt Q13464). The experiment can be described thus: ROCK1 phosphorylation activity (Reaction Biology, radiometric). The class given is biochemical, H. sapiens. The procedure:
(§1) Phosphorylation of activity of ROCK1 and ROCK2 and those of other kinases, AKT1, GRK2, PKA, PKCa and RSK1 were performed by Reaction Biology (Malvern, Pa.) (Ma et al., 2008) The ROCK1 enzyme tested was GST[1-535] ROCK1 (Genbank, NP 005397), ROCK2 was GST[5-554] (Genbank, 3327051). For the kinase assay buffers contained 20 mM Hepes, 10 mM MgCl2, 2 mM DTT, 0.02 mg/mL BSA, 0.1% DMSO, 1 mM EGTA, 0.02% Brij-35, 10 uM ATP, [γP^33]-ATP and for ROCK enzymes, 20 uM long S6-peptide (32 amino acids length). Appropriate substrates and activation was applied for the other kinases tested. Each enzyme was preincubated with test compound for 15 min., and the reaction started by addition of ATP. Samples were incubated at room temperature for 120 min, and applied to P81 ion exchange paper and washed extensively; the radioactive content of the filters were determined. […] Selectivity ratio is the value for PKA/ROCK2.
Target sequence in this assay (Q13464 1-535): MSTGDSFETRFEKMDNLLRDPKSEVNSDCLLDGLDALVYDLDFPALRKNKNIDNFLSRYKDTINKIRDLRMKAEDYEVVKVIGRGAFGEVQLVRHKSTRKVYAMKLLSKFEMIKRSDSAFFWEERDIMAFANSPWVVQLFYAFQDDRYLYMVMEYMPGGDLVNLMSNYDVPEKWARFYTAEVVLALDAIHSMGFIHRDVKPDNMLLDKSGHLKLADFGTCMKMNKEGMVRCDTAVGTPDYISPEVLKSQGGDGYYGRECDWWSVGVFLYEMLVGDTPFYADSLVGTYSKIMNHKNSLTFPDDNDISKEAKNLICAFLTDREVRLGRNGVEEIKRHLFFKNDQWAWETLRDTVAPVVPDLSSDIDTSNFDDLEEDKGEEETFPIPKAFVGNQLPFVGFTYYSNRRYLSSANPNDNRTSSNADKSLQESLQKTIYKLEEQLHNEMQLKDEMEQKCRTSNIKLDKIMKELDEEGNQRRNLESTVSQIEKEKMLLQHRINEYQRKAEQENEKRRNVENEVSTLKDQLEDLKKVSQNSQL

Experiment [3] deals with T1, ROCK1. The experiment can be described thus: Kinase binding panel (KINOMEscan), ROCK1. Particulars: table under Kinase Binding Panel. The procedure: (§2) Kinase inhibition potency was measured using KINOMEscan™ technology across 402 human kinases [Fabian et al., Nat Biotechnol. 2005 March; 23(3):329-36] (DiscoverRx, Inc., (Fremont, Calif.)). The assay is based on a competition binding assay which quantitatively measures the ability of a compound to compete with an immobilized, active-site directed ligand. […] 2008 January; 26(1):127-32; Fabian et al., Nat Biotechnol. 2005 March; 23(3):329-36]. The assay is performed by combining three components: DNA-tagged kinase; immobilized ligand; and a test compound. Binding reactions were assembled by combining, for 1 hr at room temperature, kinases, liganded affinity beads, and test compounds in binding buffer (20% SeaBlock, 0.17×PBS, 0.05% Tween-20, 6 mM DTT). The assay plates were washed and then re-suspended in elution buffer for 30 min. (PBS, 0.05% Tween 20, 0.5 μM non-biotinylated affinity ligand). The kinase concentration in the eluates was measured by qPCR.
Target sequence in this assay (Q13464 whole entry): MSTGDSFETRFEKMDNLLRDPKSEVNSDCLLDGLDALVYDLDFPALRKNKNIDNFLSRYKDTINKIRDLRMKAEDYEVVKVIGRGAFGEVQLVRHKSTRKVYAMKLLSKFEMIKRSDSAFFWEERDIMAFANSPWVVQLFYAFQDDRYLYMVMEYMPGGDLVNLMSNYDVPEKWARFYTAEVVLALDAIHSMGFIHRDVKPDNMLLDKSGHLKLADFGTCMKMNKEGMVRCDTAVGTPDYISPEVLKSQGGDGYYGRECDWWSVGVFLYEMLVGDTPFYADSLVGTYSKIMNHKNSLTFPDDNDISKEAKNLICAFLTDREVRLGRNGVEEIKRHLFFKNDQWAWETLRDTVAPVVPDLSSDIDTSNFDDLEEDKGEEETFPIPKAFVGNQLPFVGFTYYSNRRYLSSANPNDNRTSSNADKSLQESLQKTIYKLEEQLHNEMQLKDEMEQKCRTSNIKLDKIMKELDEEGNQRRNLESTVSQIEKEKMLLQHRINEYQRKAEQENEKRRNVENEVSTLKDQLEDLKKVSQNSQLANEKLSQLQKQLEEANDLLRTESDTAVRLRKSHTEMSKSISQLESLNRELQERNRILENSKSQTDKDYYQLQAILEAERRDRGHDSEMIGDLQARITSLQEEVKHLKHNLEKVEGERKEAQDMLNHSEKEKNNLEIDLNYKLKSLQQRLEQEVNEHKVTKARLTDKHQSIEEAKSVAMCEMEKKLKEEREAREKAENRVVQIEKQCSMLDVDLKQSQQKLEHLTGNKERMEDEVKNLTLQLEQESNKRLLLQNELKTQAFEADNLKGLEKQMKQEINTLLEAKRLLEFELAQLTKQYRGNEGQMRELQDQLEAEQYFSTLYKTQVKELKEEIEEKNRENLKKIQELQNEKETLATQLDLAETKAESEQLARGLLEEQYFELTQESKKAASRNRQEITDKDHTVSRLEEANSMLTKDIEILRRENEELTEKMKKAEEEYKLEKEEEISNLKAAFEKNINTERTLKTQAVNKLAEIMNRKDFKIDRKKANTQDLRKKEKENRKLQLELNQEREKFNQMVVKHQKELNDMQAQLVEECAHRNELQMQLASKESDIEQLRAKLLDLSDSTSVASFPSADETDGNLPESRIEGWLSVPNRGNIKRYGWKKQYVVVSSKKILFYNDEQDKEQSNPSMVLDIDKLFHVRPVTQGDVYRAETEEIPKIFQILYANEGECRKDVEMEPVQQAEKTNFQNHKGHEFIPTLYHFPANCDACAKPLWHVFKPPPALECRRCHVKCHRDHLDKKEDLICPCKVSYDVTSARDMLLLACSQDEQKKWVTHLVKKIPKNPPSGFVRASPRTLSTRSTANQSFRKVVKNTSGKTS

For experiment [4], the target named is T2, ROCK2 (Homo sapiens (Human), UniProt O75116). Description: Kinase binding panel (KINOMEscan), ROCK2. Particulars: table under Kinase Binding Panel. As for the experimental part:
as §2
Target sequence in this assay (O75116 whole entry): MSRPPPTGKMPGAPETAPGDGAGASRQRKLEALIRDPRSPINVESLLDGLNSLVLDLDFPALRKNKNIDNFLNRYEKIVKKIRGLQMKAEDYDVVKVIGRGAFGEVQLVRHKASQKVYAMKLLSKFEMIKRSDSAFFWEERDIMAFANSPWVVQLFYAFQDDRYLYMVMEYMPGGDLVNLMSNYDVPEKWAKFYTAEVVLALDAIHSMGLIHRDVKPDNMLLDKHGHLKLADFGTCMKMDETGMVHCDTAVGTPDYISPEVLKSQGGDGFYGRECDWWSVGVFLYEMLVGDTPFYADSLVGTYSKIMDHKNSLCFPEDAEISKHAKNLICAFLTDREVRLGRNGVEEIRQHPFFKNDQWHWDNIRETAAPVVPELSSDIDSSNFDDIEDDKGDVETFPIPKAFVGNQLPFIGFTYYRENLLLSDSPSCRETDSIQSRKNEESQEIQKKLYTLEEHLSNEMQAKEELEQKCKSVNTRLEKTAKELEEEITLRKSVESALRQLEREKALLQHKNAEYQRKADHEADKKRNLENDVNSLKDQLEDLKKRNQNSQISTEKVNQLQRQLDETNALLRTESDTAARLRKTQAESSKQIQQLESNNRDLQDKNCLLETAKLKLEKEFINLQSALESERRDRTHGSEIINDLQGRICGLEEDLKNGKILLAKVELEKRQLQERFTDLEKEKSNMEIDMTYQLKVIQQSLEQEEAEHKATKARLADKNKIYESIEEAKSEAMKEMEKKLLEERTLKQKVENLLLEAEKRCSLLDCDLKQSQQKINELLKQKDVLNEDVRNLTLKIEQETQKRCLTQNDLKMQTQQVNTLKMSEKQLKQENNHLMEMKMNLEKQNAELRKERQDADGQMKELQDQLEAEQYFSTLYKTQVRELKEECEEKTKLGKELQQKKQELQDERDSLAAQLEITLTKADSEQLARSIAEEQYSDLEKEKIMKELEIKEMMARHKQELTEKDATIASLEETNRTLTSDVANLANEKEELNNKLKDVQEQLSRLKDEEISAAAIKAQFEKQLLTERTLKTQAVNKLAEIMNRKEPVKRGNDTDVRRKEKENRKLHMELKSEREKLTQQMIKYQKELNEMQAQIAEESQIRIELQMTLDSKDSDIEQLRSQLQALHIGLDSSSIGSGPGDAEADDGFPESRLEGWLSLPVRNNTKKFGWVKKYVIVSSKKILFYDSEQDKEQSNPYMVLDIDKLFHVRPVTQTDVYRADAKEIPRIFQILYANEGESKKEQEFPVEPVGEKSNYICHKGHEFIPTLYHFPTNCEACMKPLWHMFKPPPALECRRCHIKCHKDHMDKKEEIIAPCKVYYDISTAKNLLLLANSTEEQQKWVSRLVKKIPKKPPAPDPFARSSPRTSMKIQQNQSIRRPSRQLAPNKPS

Experiment [5] deals with T2, ROCK2. Description: ROCK2 phosphorylation activity (Reaction Biology, radiometric). Particulars: for IC50: 10 uM ATP. The class given is biochemical. The procedure:
as §1

Another experiment concerns the target AKT1 (Homo sapiens (Human), UniProt P31749). Description: AKT1 phosphorylation activity. The class given is biochemical. The following applies: 10 uM ATP. The procedure: as §1
The target in a further experiment is GRK2 (Homo sapiens (Human), UniProt P25098). Description: GRK2 phosphorylation activity. The format is biochemical. Particulars: 10 uM ATP. The procedure:
as §1

The target in the next experiment is PKA (Homo sapiens (Human), UniProt P17612). The experiment can be described thus: PKA phosphorylation activity. The class given is biochemical. The following applies: 10 uM ATP. The procedure: as §1
Another experiment addresses PKCa (Homo sapiens (Human), UniProt P17252). Description: PKCa phosphorylation activity. The following applies: 10 uM ATP. The class given is biochemical. The procedure:
as §1

In a further experiment the target is RSK1 (Homo sapiens (Human), UniProt Q15418). The experiment can be described thus: RSK1 phosphorylation activity. The following applies: 10 uM ATP. The format is biochemical. As for the experimental part:
as §1

Experiment [6] concerns p-MYPT1 phosphorylation in PANC-1 cells. The experiment can be described thus: Intracellular MYPT1 phosphorylation assay in PANC-1 cells. The class given is cell-based, H. sapiens. Particulars: Homo sapiens. As for the experimental part:
Intracellular MYPT1 phosphorylation assay used the procedures of Garton et al. with minor modifications (Garton et al. Methods Enzymol. 2008; 439:491-500). PANC-1 cells (ACTT, CRL-1469), 18×10^3/well, grown over night in DMEM medium supplemented with 4.5 g/L glucose, L-glutamine, sodium pyruvate and 10% FBS at 37° C. Compounds were applied to the cells for one hour (DMSO final 1%) and the cells were then lysed. Phosphorylated-MYPT1 was detected using plate immobilized anti-MYPT1 antibody (BD Biosciences, cat. 612165), anti-phospo-MYPT1([…]), US Biological, cat. M9925-08) and secondary HRP-conjugated goat anti-rabbit IgG antibody (Jackson Laboratories, cat. 111-035-003), phospho-MYPT1 was quantified using color formed by the tetramethylbenzidine (TMB) HRP substrate.

The mark [7] stands for this setting: read-out: IC50: ROCK1: H. sapiens.
[8] abbreviates: read-out: Inhibition of hROCK1 Phosphorylation [IC50.
The mark [9] stands for this setting: PANC-1 cells, .0417 days (compounds applied for one hour), read-out: IC50: Inhib p-MYPT1 Phosphorylation in H. sapiens PANC-1 cells, .0417 days.
Where [10] appears, read: 10 uM ATP, read-out: ROCK1 IC50.

Sequence of RSK1 (Q15418 whole entry, species assumed): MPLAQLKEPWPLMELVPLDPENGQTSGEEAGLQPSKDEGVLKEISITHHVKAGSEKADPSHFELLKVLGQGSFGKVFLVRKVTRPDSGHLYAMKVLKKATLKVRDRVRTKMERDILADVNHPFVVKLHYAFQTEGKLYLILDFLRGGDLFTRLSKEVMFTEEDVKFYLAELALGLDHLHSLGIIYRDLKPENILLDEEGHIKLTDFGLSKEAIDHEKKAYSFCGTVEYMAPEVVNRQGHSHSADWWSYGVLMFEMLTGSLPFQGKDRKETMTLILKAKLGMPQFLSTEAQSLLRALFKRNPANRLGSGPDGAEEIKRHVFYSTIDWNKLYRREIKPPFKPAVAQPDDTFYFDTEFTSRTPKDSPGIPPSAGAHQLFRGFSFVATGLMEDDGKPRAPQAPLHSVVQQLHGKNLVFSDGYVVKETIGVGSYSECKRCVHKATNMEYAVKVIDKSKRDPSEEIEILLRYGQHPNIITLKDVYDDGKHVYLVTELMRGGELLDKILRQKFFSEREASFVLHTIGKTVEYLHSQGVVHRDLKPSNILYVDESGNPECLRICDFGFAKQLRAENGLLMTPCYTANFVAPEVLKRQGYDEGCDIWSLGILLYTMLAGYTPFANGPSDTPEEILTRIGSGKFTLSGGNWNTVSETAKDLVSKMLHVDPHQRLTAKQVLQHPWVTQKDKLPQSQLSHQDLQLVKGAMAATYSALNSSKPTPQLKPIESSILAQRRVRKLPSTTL

By IC50 is commonly meant the point on the concentration scale where inhibition reaches its midpoint. In the case of `Cc1c(Oc2ccc(C(C)N)cc2F)ccc2c1B(O)OC2.Cl` (single isomer, unassigned) [F], the 50% inhibitory concentration (IC50) is 20.5 µM in experiment [1]; 0.54 µM on ROCK1 [2] (setting [7]); 0.54 µM on ROCK1 [2] (setting [8]); 0.54 µM on ROCK1 [3]; 0.51 µM at ROCK2 [4]; 44.1 µM against AKT1. For the same compound, the IC50 against GRK2 was more than 20 µM; against PKA, 11 µM; against PKCa, more than 20 µM; against RSK1 it was 17.2 µM; in experiment [6] (setting [9]), 56.4 µM. The “SELECTIVITY RATIO” value at ROCK2 [5] (value for PKA/ROCK2) was determined as 21.51.

Take `Cc1c(Oc2ccc(C(C)N)cc2F)ccc2c1B(O)OC2` (single isomer, unassigned) [G]: the IC50 amounted to 5.18 µM in [1]; 0.17 µM on ROCK1 [2] (setting [7]); 0.17 µM at ROCK1 [2] (setting [8]); 0.17 µM on ROCK1 [3]; 0.17 µM at ROCK2 [4]; 10.9 µM against AKT1. Further, the IC50 was found to be 13.9 µM at GRK2; 1.79 µM on PKA; 15.6 µM at PKCa; 3.62 µM at RSK1; 18.7 µM in experiment [6] (PANC-1, read-out: IC50: Inhib p-MYPT1 Phosphorylation in H. sapiens PANC-1 cells, .0417 days [uM]). The “S[…]” value on ROCK2 [5] (value for PKA/ROCK2) came out at 10.40.

For the compound `CCc1c(Oc2ccc(CN)cc2Cl)ccc2c1B(O)OC2` [A, 6-(4-(Aminomethyl)-2-chlorophenoxy)-7-ethylbenzo[c][1,2]oxaborol-1(3H)-ol], the IC50 in experiment [1] (Homo sapiens) was determined as 3.61 µM; on ROCK1 [2] (setting [8]), 0.29 µM; at ROCK1 [3], 0.29 µM; at ROCK2 [4], 0.25 µM.

Turning to `NCc1ccc(Oc2ccc3c(c2Cl)B(O)OC3)c(Cl)c1` [B, 6-(4-(aminomethyl)-2-chlorophenoxy)-7-chlorobenzo[c][1,2]oxaborol-1(3H)-ol], the IC50 worked out at 99 µM in experiment [1] (Homo sapiens), 11 µM at ROCK1 [2] (setting [8]), 23 µM at ROCK1 [3] and 16 µM on ROCK2 [4].

Regarding `CC(N)c1ccc(Oc2ccc3c(c2)B(O)OC3)c(F)c1.Cl` (stereo not shown) [C, 6-(4-(1-aminoethyl)-2-fluorophenoxy)benzo[c][1,2]oxaborol-1(3H)-ol], the IC50 was 12 µM in experiment [1] (Homo sapiens, 24 h); 0.54 µM on ROCK1 [2] (setting [7]); 0.54 µM on ROCK1 [2] (setting [8]); 0.54 µM at ROCK1 [3]; 0.45 µM on ROCK2 [4]; more than 30 µM against AKT1. Moreover, the IC50 was more than 20 µM on GRK2; more than 50 µM at PKA; more than 20 µM against PKCa; more than 50 µM on RSK1; 48.1 µM in experiment [6] (setting [9]). Moreover, the “SELECTIVITY RATIO” value on ROCK2 [5] (value for PKA/ROCK2) was more than 111.

Consider `Cc1c(Oc2ccc(CN)cc2F)ccc2c1B(O)OC2` [D, 6-(4-(aminomethyl)-2-fluorophenoxy)-7-methylbenzo[c][1,2]oxaborol-1(3H)-ol], for which the IC50 was 12.3 µM in [1] (Homo sapiens, 24 h); 0.34 µM at ROCK1 [2] (setting [7]); 0.34 µM at ROCK1 [2] (setting [8]); 0.34 µM on ROCK1 [3]; 0.25 µM at ROCK2 [4]; 9.25 µM against AKT1. The IC50 was more than 20 µM on GRK2; 4.06 µM against PKA; more than 20 µM at PKCa; 5.01 µM against RSK1; 18.2 µM in [6] (setting [9]). Also, the “SELECTIVITY RATIO” value on ROCK2 [5] (value for PKA/ROCK2) was 16.29.

On to `Cc1c(Oc2ccc(C(C)N)cc2F)ccc2c1B(O)OC2` (stereo not shown) [E, 6-(4-(1-aminoethyl)-2-fluorophenoxy)-7-methylbenzo[c][1,2]oxaborol-1(3H)-ol], for which the IC50 in experiment [1] (Homo sapiens, 24 h) is 5.4 µM; at ROCK1 [2] (setting [7]), 0.42 µM; on ROCK1 [2] (setting [8]) it was 0.42 µM; at ROCK1 [3], 0.42 µM; on ROCK2 [4] it was 0.25 µM; on AKT1 it was 21.5 µM. Further, the IC50 against GRK2 was more than 20 µM; against PKA it was 6.09 µM; against PKCa it was more than 20 µM; on RSK1, 8.31 µM; in experiment [6] (setting [9]) it was 39.7 µM. Further, the “SELECTIVITY RATIO” value at ROCK2 [5] (value for PKA/ROCK2) is listed as 24.74.

Regarding `Cc1c(Oc2cccc(CNC(=O)OC(C)(C)C)c2F)ccc2c1B(O)OC2` [L, tert-butyl 2-fluoro-3-(1-hydroxy-7-methyl-1,3-dihydrobenzo[c][1,2]oxaborol-6-yloxy)benzylcarbamate], the IC50 on ROCK1 [2] (setting [8]) is 0.72 µM; on ROCK1 [3], 0.72 µM; on ROCK2 [4], 0.664 µM; against ROCK2 [5], 0.66 µM; against AKT1 it was more than 30 µM; against GRK2, more than 30 µM. The IC50 against PKA was 7.88 µM; on PKCa, more than 30 µM; at RSK1 it was 25 µM. The “SELECTIVITY RATIO” value on ROCK2 [5] (value for PKA/ROCK2) turned out to be 11.87.

With `Cc1c(Oc2cccc(CN)c2F)ccc2c1B(O)OC2` [M, 6-(3-(aminomethyl)-2-fluorophenoxy)-7-methylbenzo[c][1,2]oxaborol-1(3H)-ol], the IC50 is 0.25 µM at ROCK1 [2] (setting [10]); 0.247 µM at ROCK1 [2] (setting [8]); 0.247 µM at ROCK1 [3]; 0.216 µM on ROCK2 [4]; 0.22 µM at ROCK2 [5]; more than 30 µM at AKT1. Moreover, the IC50 is more than 30 µM against GRK2, 3.38 µM against PKA, more than 30 µM on PKCa and 5.19 µM against RSK1. For the same compound, on ROCK2 [5] (value for PKA/ROCK2), the “SELECTIVITY RATIO” value was 15.65.

For `CC(C)c1c(Oc2ccc(CN)cc2Cl)ccc2c1B(O)OC2` [N, 6-(4-(aminomethyl)-2-chlorophenoxy)-7-isopropylbenzo[c][1,2]oxaborol-1 (3H)-ol], the IC50 in [1] (Homo sapiens) was 5.63 µM; on ROCK1 [2] (setting [10]), 0.06 µM; on ROCK1 [2] (setting [8]) it was 0.596 µM; on ROCK1 [3], 0.0596 µM; at ROCK2 [4] it was 0.0472 µM; against ROCK2 [5] it was 0.047 µM. For the same compound, the IC50 against AKT1 came out at 4.22 µM; on PKA, 0.055 µM; against PKCa, 10.8 µM; against RSK1, 0.195 µM. Besides, on ROCK2 [5] (value for PKA/ROCK2), the “SELECTIVITY RATIO” value stood at 1.17.
